According to patent EP4778932A1 (priority 2023, dated 2025):

Experiments:
[1] = system: MDA-MB-231, OV90, and NCI-N87 cells; experiment: Tumor cell proliferation inhibition assay of novel ecteinascidin derivatives, summary over the three cell lines; assay type: cell-based; conditions: compared with trabectedin and lurbinectedin
Protocol: (§1) The cells were cultured overnight in a constant-temperature incubator (37°C, 5% CO2). Ecteinascidin derivative solutions at a maximum concentration of 2 mM were first prepared in DMSO, and serial 1:4 gradient dilutions were performed. 1 µL of each DMSO-prepared dilution was added to 99 µL of PBS containing 10% FBS per well and mixed thoroughly. The diluted solutions (2 µL of diluted solution and 18 µL of PBS containing 10% FBS per well) were then co-incubated with the cells (37°C, 5% CO2) for five days, after which CellTiter-Glo reagent (40 µL per well) was added, and […] values were measured using an i3x microplate reader.

OV90 = experiment: cells; assay type: cell-based; conditions: Homo sapiens, OV-90, 120 h; OV90 cells, five days co-incubation; read-out: IC50 (nM) OV90
Protocol: as §1, with “MDA-MB-231, OV90, and NCI-N87 cells at defined cell densities (1,500 cells per well, 80 µL volume) were seeded into 96-well plates. The cells” for “The cells”

NCI-N87 = experiment: cells; assay type: cell-based; conditions: Homo sapiens, 120 h; NCI-N87 cells, five days co-incubation; read-out: IC50 (nM) NCI-N87
Protocol: as §1, with “MDA-MB-231, OV90, and NCI-N87 cells at defined cell densities (1,500 cells per well, 80 µL volume) were seeded into 96-well plates. The cells” for “The cells”

MDA-MB-231 = experiment: cells; assay type: cell-based; conditions: Homo sapiens, 120 h; MDA-MB-231 cells, five days co-incubation; read-out: IC50 (nM) MDA-MB-231
Protocol: as §1, with “MDA-MB-231, OV90, and NCI-N87 cells at defined cell densities (1,500 cells per well, 80 µL volume) were seeded into 96-well plates. The cells” for “The cells”

[2] = system: specific soft tissue sarcomas; conditions: cited from earlier work
[3] = 378 patients who received at least one dose; cited from earlier work

SMILES | in-vitro cytotoxic activities [1] | IC50 (OV90) | IC50 (NCI-N87) | IC50 (MDA-MB-231) | further results
COc1cc2c(cc1N)C(C)(C)CN[C@]21CS[C@@H]2c3c(OC(C)=O)c(C)c4c(c3[C@H](COC1=O)N1[C@@H]2[C@H]2c3c(cc(C)c(OC)c3O)C[C@@H]([C@@H]1O)N2C)OCO4 [P52] | superior to or comparable to those of trabectedin and lurbinectedin | < 1 nM | < 1 nM | < 1 nM | 
COc1cc2c(cc1NC(=O)C(O)C1CC1)CCN[C@]21CS[C@@H]2c3c(OC(C)=O)c(C)c4c(c3[C@H](COC1=O)N1[C@@H]2[C@H]2c3c(cc(C)c(OC)c3O)C[C@@H]([C@@H]1C#N)N2C)OCO4 (stereo partly drawn) [P58] | superior to or comparable to those of trabectedin and lurbinectedin | < 1 nM | < 1 nM | < 1 nM | 
COc1cc2c(cc1NC(=O)[C@H]1C[C@@H](O)C1)CCN[C@]21CS[C@@H]2c3c(OC(C)=O)c(C)c4c(c3[C@H](COC1=O)N1[C@@H]2[C@H]2c3c(cc(C)c(OC)c3O)C[C@@H]([C@@H]1C#N)N2C)OCO4 [P74] | superior to or comparable to those of trabectedin and lurbinectedin | < 1 nM | < 1 nM | < 1 nM | 
COc1cc2c(cc1NC(=O)[C@H]1C[C@H](O)C1)CCN[C@]21CS[C@@H]2c3c(OC(C)=O)c(C)c4c(c3[C@H](COC1=O)N1[C@@H]2[C@H]2c3c(cc(C)c(OC)c3O)C[C@@H]([C@@H]1C#N)N2C)OCO4 [P75] | superior to or comparable to those of trabectedin and lurbinectedin | < 1 nM | < 1 nM | < 1 nM | 
COc1c(C)cc2c(c1O)[C@@H]1[C@@H]3[C@@H]4SC[C@]5(NCCc6cc(NC(=O)CO)c(F)cc65)C(=O)OC[C@@H](c5c6c(c(C)c(OC(C)=O)c54)OCO6)N3[C@@H](C#N)[C@H](C2)N1C [P85] | superior to or comparable to those of trabectedin and lurbinectedin | < 1 nM | < 1 nM | < 1 nM | 
COc1cc2c(cc1NC(=O)CO)C(C)(C)CN[C@]21CS[C@@H]2c3c(OC(C)=O)c(C)c4c(c3[C@H](COC1=O)N1[C@@H]2[C@H]2c3c(cc(C)c(OC)c3O)C[C@@H]([C@@H]1C#N)N2C)OCO4 [P96] | superior to or comparable to those of trabectedin and lurbinectedin | < 1 nM | < 1 nM | < 1 nM | 
COc1c(C)cc2c(c1O)[C@@H]1[C@@H]3[C@@H]4SC[C@]5(NCCc6c5ccc(N)c6OC)C(=O)OC[C@@H](c5c6c(c(C)c(OC(C)=O)c54)OCO6)N3[C@@H](C#N)[C@H](C2)N1C [P166] | superior to or comparable to those of trabectedin and lurbinectedin | < 1 nM | < 1 nM | < 1 nM | 
COc1c(C)cc2c(c1O)[C@@H]1[C@@H]3[C@@H]4SC[C@]5(NCCc6c5ccc(NC(=O)CO)c6OC)C(=O)OC[C@@H](c5c6c(c(C)c(OC(C)=O)c54)OCO6)N3[C@@H](C#N)[C@H](C2)N1C [P170] | superior to or comparable to those of trabectedin and lurbinectedin | < 1 nM | < 1 nM | < 1 nM | 
COc1c(C)cc2c(c1O)[C@@H]1[C@@H]3[C@@H]4SC[C@]5(NCCc6cc(N)c(C)cc65)C(=O)OC[C@@H](c5c6c(c(C)c(OC(C)=O)c54)OCO6)N3[C@@H](C#N)[C@H](C2)N1C [P172] | superior to or comparable to those of trabectedin and lurbinectedin | < 1 nM | < 1 nM | < 1 nM | 
COc1cc(N)cc2c1[C@@]1(CS[C@@H]3c4c(OC(C)=O)c(C)c5c(c4[C@H](COC1=O)N1[C@@H]3[C@H]3c4c(cc(C)c(OC)c4O)C[C@@H]([C@@H]1C#N)N3C)OCO5)NCC2 [T1] | superior to or comparable to those of trabectedin and lurbinectedin | < 1 nM | < 1 nM | < 1 nM | 
COc1c(C)cc2c(c1O)[C@@H]1[C@@H]3[C@@H]4SC[C@]5(NCC(C)(C)c6cc(N)c(F)cc65)C(=O)OC[C@@H](c5c6c(c(C)c(OC(C)=O)c54)OCO6)N3[C@@H](C#N)[C@H](C2)N1C [T3] | superior to or comparable to those of trabectedin and lurbinectedin | < 1 nM | < 1 nM | < 1 nM | 
COc1c(C)cc2c(c1O)[C@@H]1[C@@H]3[C@@H]4SC[C@]5(NCCc6cc(NC(=O)C7(O)CC7)c(F)cc65)C(=O)OC[C@@H](c5c6c(c(C)c(OC(C)=O)c54)OCO6)N3[C@@H](C#N)[C@H](C2)N1C [T4] | superior to or comparable to those of trabectedin and lurbinectedin | < 1 nM | < 1 nM | < 1 nM | 
COc1cc2c(cc1N)C(OC)CN[C@]21CS[C@@H]2c3c(OC(C)=O)c(C)c4c(c3[C@H](COC1=O)N1[C@@H]2[C@H]2c3c(cc(C)c(OC)c3O)C[C@@H]([C@@H]1C#N)N2C)OCO4 (stereo partly drawn) [T10] | superior to or comparable to those of trabectedin and lurbinectedin | < 1 nM | < 1 nM | < 1 nM | 
COc1cc2c(cc1N(C)C(=O)CO)CCN[C@]21CS[C@@H]2c3c(OC(C)=O)c(C)c4c(c3[C@H](COC1=O)N1[C@@H]2[C@H]2c3c(cc(C)c(OC)c3O)C[C@@H]([C@@H]1C#N)N2C)OCO4 [T17] | superior to or comparable to those of trabectedin and lurbinectedin | < 1 nM | < 1 nM | < 1 nM | 
COc1cc2c(cc1O)CCN[C@]21CS[C@@H]2c3c(OC(C)=O)c(C)c4c(c3[C@H](COC1=O)N1[C@@H]2[C@H]2c3c(cc(C)c(OC)c3O)C[C@@H]([C@@H]1O)N2C)OCO4 [Trabectedin] |  | 10 to 200 nM | < 1 nM | 1 to 10 nM | HR ([2]; disease progression or death, 95% CI: 0.44-0.70, p<0.001): 0.55; median OS ([2]; more than 500 patients): 13.7 months; risk of disease progression or death was reduced ([2]; more than 500 patients): 45%; median PFS ([2]; more than 500 patients, n=345, 95% CI: 3.0-4.8 months): 4.2 months; adverse reactions: constipation [3]: 37%; adverse reactions: decreased appetite [3]: 37%; adverse reactions: diarrhea [3]: 35%; adverse reactions: dyspnea [3]: 25%; adverse reactions: fatigue [3]: 69%; adverse reactions: headache [3]: 25%; adverse reactions: nausea [3]: 75%; adverse reactions: peripheral edema [3]: 28%; adverse reactions: vomiting [3]: 46%; grade 3-4 laboratory abnormalities: alanine transaminase (ALT) increase [3]: 31%; grade 3-4 laboratory abnormalities: anemia [3]: 19%; grade 3-4 laboratory abnormalities: aspartate transaminase (AST) increase [3]: 17%; grade 3-4 laboratory abnormalities: creatine kinase increase [3]: 6.4%; grade 3-4 laboratory abnormalities: neutropenia [3]: 43%; grade 3-4 laboratory abnormalities: thrombocytopenia [3]: 21%
